Test system: renal proximal tubule cells
Assay: Phenotypic transformation / lumen formation (tubulogenesis) in a confluent monolayer, by light and electron microscopy
Assay type: cell-based, rabbit
Conditions: density-arrested confluent monolayer; where present TGF-β1 10 ng/ml, EGF 1 nM, RA 0.1 μM; 144 hours in Example 1
Procedure: Rabbit renal proximal tubule cells were grown in primary culture by techniques reported by Humes et al. in Lab. Invest. 64:538-45 (1991). The cells were grown in 35 mm Corning culture dishes with serum-free, hormonally defined Dulbecco's Modified Eagle Hams F-12 media (1:1, v/v) containing L-glutamine, penicillin, streptomycin, 50 nM hydrocortisone, 5 μg/ml of insulin, and 5 μg/ml of transferrin. The cultures were maintained in a humidified 5% CO2/95% air incubator at 37° C. Medium was changed every 3 to 5 days, depending on nutrient requirements based upon cell number. Cultures became confluent in 9 to 12 days. Once confluent, various agents as described below were added in 20 μl aliquots at various times to promote changes in morphologic phenotype or pattern formation.
Specimens for ultrastructural analysis were fixed with 2% glutaraldehyde in Sorenson's buffer (pH 7.2, 310 mOsm). Postfixation occurred in 1% OsO4 followed by dehydration in ethanol. Specimens were transferred through propylene oxide into monomer mixture (poly/Bed 812A, Araldite, DDSA and DMP-30) and polymerized at 60° C. Thin sections were stained with uranyl acetate and lead citrate, and examined in a Zeiss 9-S2 transmission electron microscope.
Of note, in each aggregation of cells one or two lumen structures were usually observed in random sectioning of tissue culture preparations. […]

Compound	morphologic phenotype of the monolayer / lumen formation
TGF-β1: transforming growth factor-β1 (porcine platelets) from R & D Systems	no lumen formation was observed
CC1=C(/C=C/C(C)=C/C=C/C(C)=C/C(=O)O)C(C)(C)CCC1 [RA, all-trans retinoic acid]	no dramatic effect on the appearance of the monolayer
